Test results reported in US20230071978A1, “METHOD FOR TREATING IDH1 INHIBITOR-RESISTANT SUBJECTS” (Eli Lilly and Company, priority 2020, published 2023).

Legend:
[1] = target: T1, IDH1R132C_H315D cis (Homo sapiens, UniProt O75874, H315D/R132C); experiment: 2-HG cell-based inhibition assay, U87MG IDH1R132C_H315D cis; details: Cell line construct U87MG IDH1R132C_H315D cis; 2-HG by LC-MS
T1 construct: expressed in transfected cells; host or cells: U-87 MG (ATCC HTB-14)
Experimental: (§1) Compounds and Formulation. […] DMSO preps are further diluted with cell culture media prior to addition in the assay.
(§2) Cell lines. U-87 MG cells (ATCC, HTB-14) are cultured and assayed in MEM (Gibco, 11095) with 2 mM GlutaMAX (Gibco, 35050), 1 mM Pyruvate (Gibco, 11360), 0.1 mM NEAA ((Non-essential amino acid) Gibco, 11140) and 10% dialyzed FBS (Fetal bovine serum) (Gibco, 26400). Ba/F3 cells (DSMZ, ACC 300) are cultured and assayed in RPMI 1640 (Gibco, 22400) with 10% heat inactivated FBS (Gibco, 10082-147) and 10 ng/ml mouse IL3 (R&D systems, 403-ML-025).
(§3) Cell-based inhibition assays. Cell-based assays are performed by measuring 2-HG in either U-87 MG cells or Ba/F3 cells in which IDH mutations are expressed.
(§4) DNA constructs encoding IDH1 mutations are introduced into U-87 MG cells using transfection (Promega FuGENE HD, E2311) or lentiviral transduction, and the IDH-mutant expressing cell lines are selected using blasticidin (5 μg/ml) or puromycin (1 μg/ml). […]
(§5) LC-MS metabolite analysis of conditioned media and cell lysates. The effect of inhibitors on the concentrations of 2-HG are determined by liquid chromatography-mass spectrometry (LC-MS) analysis of cell lysates or conditioned media using either a derivatization method or an ion-pairing method as described below. […]

[2] = target: T2, IDH1R132L_S280F cis (Homo sapiens, UniProt O75874, R132L/S280F); experiment: 2-HG cell-based inhibition assay, U87MG IDH1R132L_S280F cis; details: Cell line construct U87MG IDH1R132L_S280F cis; 2-HG by LC-MS
T2 construct: expressed in transfected cells; host or cells: U-87 MG (ATCC HTB-14)
Experimental: as §1, §2, §3, §4, §5

[3] = target: T3, IDH1R132L_H315D cis (Homo sapiens, UniProt O75874, H315D/R132L); experiment: 2-HG cell-based inhibition assay, U87MG IDH1R132L_H315D cis; details: Cell line construct U87MG IDH1R132L_H315D cis; 2-HG by LC-MS
T3 construct: expressed in transfected cells; host or cells: U-87 MG (ATCC HTB-14)
Experimental: as §1, §2, §3, §4, §5

[4] = target: T4, R132H_S280F mutant IDH1 (Homo sapiens, UniProt O75874, R132H/S280F); experiment: 2-HG cell-based inhibition assay, U87MG R132H_S280F; details: Cell line construct U87MG R132H_S280F; 2-HG by LC-MS
T4 construct: myc; expressed in transfected cells; host or cells: Ba/F3 (DSMZ ACC 300), stably transfected
Experimental: as §1, §2, §3, §4, §5

[5] = target: T5, IDH1R132H_G131A cis (Homo sapiens, UniProt O75874, G131A/R132H); experiment: 2-HG cell-based inhibition assay, U87MG IDH1R132H_G131A cis; details: Cell line construct U87MG IDH1R132H_G131A cis; 2-HG by LC-MS
T5 construct: expressed in transfected cells; host or cells: U-87 MG (ATCC HTB-14)
Experimental: as §1, §2, §3, §4, §5

[6] = target: T6, IDH1R132L_R119P cis (Homo sapiens, UniProt O75874, R119P/R132L); experiment: 2-HG cell-based inhibition assay, U87MG IDH1R132L_R119P cis; details: Cell line construct U87MG IDH1R132L_R119P cis; 2-HG by LC-MS
T6 construct: expressed in transfected cells; host or cells: U-87 MG (ATCC HTB-14)
Experimental: as §1, §2, §3, §4, §5

[7] = target: T7, R132H mutant IDH1 (Homo sapiens, UniProt O75874, R132H); experiment: 2-HG cell-based inhibition assay, Ba/F3 R132H; details: Cell line construct Ba/F3 R132H; 2-HG in conditioned media by LC-MS
T7 construct: myc; expressed in transfected cells; host or cells: Ba/F3 (DSMZ ACC 300), stably transfected
Experimental: as §1, §3
Ba/F3 cells are transfected with DNA constructs encoding IDH1R132H-myc, IDH1R132H_S280E-myc, or IDH1R132C_S280E-myc constructs using NEON Transfection system (Life Technologies, MPK10025) and isolated using Puromycin (2 μg/mL) or Blasticidin (10 μg/mL). Stably transfected lines are used for inhibitor assays. […] Cells are treated with serial dilutions of the desired compounds in standard growth media. Plates are incubated in a mammalian cell culture incubator (humidified, 37° C., 5% CO2) for the desired time (72 or 96 hours). Following the incubation period, conditioned media from each well is collected for 2-HG analysis by LC-MS.
LC-MS metabolite analysis of conditioned media and cell lysates. The effect of inhibitors on the concentrations of 2-HG are determined by liquid chromatography-mass spectrometry (LC-MS) analysis of cell lysates or conditioned media using either a derivatization method or an ion-pairing method as described below.
For the derivatization LC-MS method, calibration curves are prepared by spiking 2-HG and α-KG into cell culture media and cell lysis buffer respectively. […]

[8] = target: T8, IDH1R132C_G131A cis (Homo sapiens, UniProt O75874, G131A/R132C); experiment: 2-HG cell-based inhibition assay, U87MG IDH1R132C_G131A cis; details: Cell line construct U87MG IDH1R132C_G131A cis; 2-HG by LC-MS
T8 construct: expressed in transfected cells; host or cells: U-87 MG (ATCC HTB-14)
Experimental: as §1, §2, §3, §4, §5

[9] = target: T9, IDH1R132H_H315D cis (Homo sapiens, UniProt O75874, H315D/R132H); experiment: 2-HG cell-based inhibition assay, U87MG IDH1R132H_H315D cis; details: Cell line construct U87MG IDH1R132H_H315D cis; 2-HG by LC-MS
T9 construct: expressed in transfected cells; host or cells: U-87 MG (ATCC HTB-14)
Experimental: as §1, §2, §3, §4, §5

[10] = target: T10, IDH1R132L_G131A cis (Homo sapiens, UniProt O75874, G131A/R132L); experiment: 2-HG cell-based inhibition assay, U87MG IDH1R132L_G131A cis; details: Cell line construct U87MG IDH1R132L_G131A cis; 2-HG by LC-MS
T10 construct: expressed in transfected cells; host or cells: U-87 MG (ATCC HTB-14)
Experimental: as §1, §2, §3, §4, §5

[11] = target: T11, IDH1R132H_R119P cis (Homo sapiens, UniProt O75874, R119P/R132H); experiment: 2-HG cell-based inhibition assay, U87MG IDH1R132H_R119P cis; details: Cell line construct U87MG IDH1R132H_R119P cis; 2-HG by LC-MS
T11 construct: expressed in transfected cells; host or cells: U-87 MG (ATCC HTB-14)
Experimental: as §1, §2, §3, §4, §5

[12] = target: T12, R132C_S280F mutant IDH1 (Homo sapiens, UniProt O75874, R132C/S280F); experiment: 2-HG cell-based inhibition assay, Ba/F3 R132C_S280F; details: Cell line construct Ba/F3 R132C_S280F; 2-HG in conditioned media by LC-MS
T12 construct: myc; expressed in transfected cells; host or cells: Ba/F3 (DSMZ ACC 300), stably transfected

[13] = target: T4, R132H_S280F mutant IDH1; experiment: 2-HG cell-based inhibition assay, Ba/F3 R132H_S280F; details: Cell line construct Ba/F3 R132H_S280F; 2-HG in conditioned media by LC-MS
[14] = target: T7, R132H mutant IDH1; experiment: 2-HG cell-based inhibition assay, U87MG R132H; details: Cell line construct U87MG R132H; 2-HG by LC-MS
Experimental: as §1, §2, §3, §4, §5

[15] = target: T13, IDH1R132L_D279N cis (Homo sapiens, UniProt O75874, D279N/R132L); experiment: 2-HG cell-based inhibition assay, U87MG IDH1R132L_D279N cis; details: Cell line construct U87MG IDH1R132L_D279N cis; 2-HG by LC-MS
T13 construct: expressed in transfected cells; host or cells: U-87 MG (ATCC HTB-14)
Experimental: as §1, §2, §3, §4, §5

[16] = target: T14, IDH1R132C_G289D cis (Homo sapiens, UniProt O75874, G289D/R132C); experiment: 2-HG cell-based inhibition assay, U87MG IDH1R132C_G289D cis; details: Cell line construct U87MG IDH1R132C_G289D cis; 2-HG by LC-MS
T14 construct: expressed in transfected cells; host or cells: U-87 MG (ATCC HTB-14)
Experimental: as §1, §2, §3, §4, §5

[17] = target: T15, IDH1R132C_D279N cis (Homo sapiens, UniProt O75874, D279N/R132C); experiment: 2-HG cell-based inhibition assay, U87MG IDH1R132C_D279N cis; details: Cell line construct U87MG IDH1R132C_D279N cis; 2-HG by LC-MS
T15 construct: expressed in transfected cells; host or cells: U-87 MG (ATCC HTB-14)
Experimental: as §1, §2, §3, §4, §5

[18] = target: T16, IDH1R132H_D279N cis (Homo sapiens, UniProt O75874, D279N/R132H); experiment: 2-HG cell-based inhibition assay, U87MG IDH1R132H_D279N cis; details: Cell line construct U87MG IDH1R132H_D279N cis; 2-HG by LC-MS
T16 construct: expressed in transfected cells; host or cells: U-87 MG (ATCC HTB-14)
Experimental: as §1, §2, §3, §4, §5

[19] = target: T17, IDH1R132L_G289D cis (Homo sapiens, UniProt O75874, G289D/R132L); experiment: 2-HG cell-based inhibition assay, U87MG IDH1R132L_G289D cis; details: Cell line construct U87MG IDH1R132L_G289D cis; 2-HG by LC-MS
T17 construct: expressed in transfected cells; host or cells: U-87 MG (ATCC HTB-14)
Experimental: as §1, §2, §3, §4, §5

[20] = target: T18, IDH1R132C_R119P cis (Homo sapiens, UniProt O75874, R119P/R132C); experiment: 2-HG cell-based inhibition assay, U87MG IDH1R132C_R119P cis; details: Cell line construct U87MG IDH1R132C_R119P cis; 2-HG by LC-MS
T18 construct: expressed in transfected cells; host or cells: U-87 MG (ATCC HTB-14)
Experimental: as §1, §2, §3, §4, §5

[21] = target: T12, R132C_S280F mutant IDH1; experiment: 2-HG cell-based inhibition assay, U87MG R132C_S280F; details: Cell line construct U87MG R132C_S280F; 2-HG by LC-MS
Experimental: as §1, §2, §3, §4, §5

T7 sequence (O75874 whole entry R132H): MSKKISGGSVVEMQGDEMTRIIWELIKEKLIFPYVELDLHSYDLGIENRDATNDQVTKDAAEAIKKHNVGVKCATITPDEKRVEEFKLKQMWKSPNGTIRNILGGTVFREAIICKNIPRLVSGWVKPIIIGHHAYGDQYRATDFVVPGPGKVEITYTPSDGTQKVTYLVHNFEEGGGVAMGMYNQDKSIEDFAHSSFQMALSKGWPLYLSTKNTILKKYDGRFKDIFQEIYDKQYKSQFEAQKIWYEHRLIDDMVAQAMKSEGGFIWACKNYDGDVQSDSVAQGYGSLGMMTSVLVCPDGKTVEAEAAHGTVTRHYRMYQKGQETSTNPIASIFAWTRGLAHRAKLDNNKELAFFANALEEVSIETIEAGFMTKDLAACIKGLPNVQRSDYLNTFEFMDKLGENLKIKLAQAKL
T12 sequence (O75874 whole entry R132C/S280F): as the sequence (O75874 whole entry R132H) above, with H132C, S280F counted along it
T4 sequence (O75874 whole entry R132H/S280F): as the sequence (O75874 whole entry R132H) above, with S280F counted along it
T14 sequence (O75874 whole entry R132C/G289D): as the sequence (O75874 whole entry R132H) above, with H132C, G289D counted along it
T17 sequence (O75874 whole entry R132L/G289D): as the sequence (O75874 whole entry R132H) above, with H132L, G289D counted along it
T15 sequence (O75874 whole entry R132C/D279N): as the sequence (O75874 whole entry R132H) above, with H132C, D279N counted along it
T3 sequence (O75874 whole entry R132L/H315D): as the sequence (O75874 whole entry R132H) above, with H132L, H315D counted along it
T1 sequence (O75874 whole entry R132C/H315D): as the sequence (O75874 whole entry R132H) above, with H132C, H315D counted along it
T8 sequence (O75874 whole entry G131A/R132C): as the sequence (O75874 whole entry R132H) above, with G131A, H132C counted along it
T16 sequence (O75874 whole entry R132H/D279N): as the sequence (O75874 whole entry R132H) above, with D279N counted along it
T11 sequence (O75874 whole entry R119P/R132H): as the sequence (O75874 whole entry R132H) above, with R119P counted along it
T5 sequence (O75874 whole entry G131A/R132H): as the sequence (O75874 whole entry R132H) above, with G131A counted along it
T10 sequence (O75874 whole entry G131A/R132L): as the sequence (O75874 whole entry R132H) above, with G131A, H132L counted along it
T2 sequence (O75874 whole entry R132L/S280F): as the sequence (O75874 whole entry R132H) above, with H132L, S280F counted along it
T18 sequence (O75874 whole entry R119P/R132C): as the sequence (O75874 whole entry R132H) above, with R119P, H132C counted along it
T9 sequence (O75874 whole entry R132H/H315D): as the sequence (O75874 whole entry R132H) above, with H315D counted along it
T13 sequence (O75874 whole entry R132L/D279N): as the sequence (O75874 whole entry R132H) above, with H132L, D279N counted along it
T6 sequence (O75874 whole entry R119P/R132L): as the sequence (O75874 whole entry R132H) above, with R119P, H132L counted along it

- IC50 [1]: 1.33 nM
- IC50 [2]: 179 nM
- IC50 [3]: 5.07 nM
- IC50 [4]: 2.58 nM
- IC50 [5]: 5.89 nM
- IC50 [6]: 89.7 nM
- IC50 [7]: 0.11 nM
- IC50 [8]: 25.6 nM
- IC50 [9]: 1.49 nM
- IC50 [10]: 64.5 nM
- IC50 [11]: 2.52 nM
- IC50 [12]: 1.53 nM
- IC50 [13]: 1.13 nM
- IC50 [14]: 0.32 nM
- IC50 [15]: 645 nM
- IC50 [16]: 23.5 nM
- IC50 [17]: 102 nM
- IC50 [18]: 13.8 nM
- IC50 [19]: 29.4 nM
- IC50 [20]: 10.5 nM
- IC50 [21]: 12.5 nM
Compound: C=CC(=O)N1CCN([C@@H](CC2CC2)c2ccc([C@H](C)Nc3ncc4c(n3)N(CC)C(=O)OC4)cc2)CC1 [Compound A, 7-[[(1S)-1-[4-[(1S)-2-cyclopropyl-1-(4-prop-2-enoylpiperazin-1-yl)ethyl]phenyl]ethyl]amino]-1-ethyl-4H-pyrimido[4,5-d][1,3]oxazin-2-one]
